Source: patent US4848349A, “Substance and method for measuring hepatic blood flow” (priority 1987, dated 1989)

What was measured:
Assay type in all cases: in vivo
[1] = Liver blood flow measurement by plasma elimination of injected FITC-GC; settings: 9 kg dog
Protocol: The use of FITC bile acid for measuring liver blood flow has been tested in a dog. The following experimental protocol was followed.
15 μmoles of FITC-labelled glycocholic bile acid (FITC-GC) in 2 ml normal saline were injected into a 9 kg dog. Serial blood samples were taken into heparinized containers at 2, 4, 6, 8, and 10 minutes following the initial injection. The samples were then centrifuged for 5 minutes and the plasma collected. The concentration of FITC-GC in each plasma sample was measured with a PERKIN-ELMERS* spectrophlourimeter, using a previously determined calibration curve for FITC-GC solutions in plasma.
Therefore plasma clearance was calculated as [formula] M-amount of material injected and k=const. (k=1 for 100% extraction, 0.9 for 90% extraction), thus [formula] where [formula] is the slope of the line for concentration vs. time plot on a semi-log paper, and Co is the initial concentration (log Co is determined as an intercept of the plot with the concentration axis). For the purpose of calculating plasma clearance, k was assumed to equal 0.9.
Liver blood flow was then calculated from the plasma clearance value using the previously determined blood hematocrit (Htc) value as follows: [formula]

rats = test: Effects on bile flow, sinusoidal blood flow, blood pressure and heart rate (rats); settings: compared with equimolar amounts of sodium glycocholate
hamsters = test: Effects on bile flow, sinusoidal blood flow, blood pressure and heart rate (hamsters); settings: compared with equimolar amounts of sodium glycocholate
[2] = Biliary excretion after intraduodenal injection (enterohepatic circulation)
Protocol: In another group of experiments, FITC-GC was injected intraduodenally and bile samples collected for a period of two hours. More than 90% of the injected conjugate was excreted in the bile. […] It is these characteristics of fluoresceintly labelled bile acids which make them valuable as diagnostic agents and research tools.

C[C@H](CCC(=O)NCC(=O)O)[C@H]1CC[C@H]2[C@@H]3[C@H](O)C[C@@H]4C[C@H](OC(=S)Nc5ccc6c(c5)C5(OC6=O)c6ccc(O)cc6Oc6cc(O)ccc65)CC[C@]4(C)[C@H]3C[C@H](O)[C@]12C [FITC-GC, fluorescein isothiocyanate-sodium glycocholate]
liver blood flow ([1]; 15 μmoles FITC-GC injected in 2 ml normal saline, samples at 2-10 minutes, k assumed 0.9, corrected for hematocrit): 194 mL/min
concentration values in plasma serial samples (decline) ([1]; 15 μmoles injected, 2, 4, 6, 8 and 10 minutes): monoexponential decline
effect on bile flow (rats): the same effects
effect on blood pressure (rats): the same effects
effect on heart rate (rats): the same effects
effect on sinusoidal blood flow (rats): the same effects
effect on bile flow (hamsters): the same effects
effect on blood pressure (hamsters): the same effects
effect on heart rate (hamsters): the same effects
effect on sinusoidal blood flow (hamsters): the same effects
dose excreted at 2 h ([2]; injected intraduodenally, bile collected for two hours, read-out: injected conjugate excreted in the bile): > 90%
enterohepatic circulation ([2]; intraduodenal injection and reinjection of bile): undergoes an enterohepatic circulation
elimination of the injected conjugate via bile after reinjection of collected bile ([2]; reinjection into the duodenum of the bile collected): almost complete elimination
